Measurements from publication PMC9411207, “Designed peptides as nanomolar cross-amyloid inhibitors acting via supramolecular nanofiber co-assembly” (Nature Communications, 2022).
Read-outs that look alike come from different tables or passages of the source. Square brackets hold non-standard residues; d marks the D form. Peptide text beside a SMILES is read from it. NMeF = CN[C@@H](Cc1ccccc1)C(=O)O; NMeL = CN[C@@H](CC(C)C)C(=O)O; NMeV = CN[C@H](C(=O)O)C(C)C; Nle = CCCC[C@H](N)C(=O)O

How the values were obtained:
[1] = target: T1, N-terminal FITC-labeled Aβ42 (Homo sapiens, UniProt P05067); test: Fluorescence spectroscopic titration of FITC-Aβ42 with ACMs; format: binding
T1 construct: the 40(42)-residue peptide Aβ40(42); purchased Bachem
T1 sequence (P05067 672-713 limits assumed): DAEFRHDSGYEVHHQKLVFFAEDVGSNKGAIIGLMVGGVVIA
Protocol: (§1) Fluorescence spectroscopic studies were performed with a Jasco FP-6500 fluorescence spectrophotometer (software: Spectra Manager V1.54.03 (Build 1)) using previously established protocols[12],[20],[25],[26],[32]. Briefly, excitation was at 492 nm and spectra were measured between 500 and 600 nm. All titrations were performed in freshly made solutions of synthetic N-terminal fluorescently-labeled peptide (5 nM) and various amounts of unlabeled peptide in 10 mM sodium phosphate buffer, pH 7.4 (1% HFIP) within 2–5 min following solution preparation as described in refs. [20], [25], [26]. Under these experimental conditions, freshly made solutions of Fluos-IAPP and FITC-Aβ42 (5 nM) consist mostly of monomers[25],[26],[32] and the same was found for Fluos-ACMs (5 nM) (e.g., Supplementary Fig. 5e). Apparent binding affinities (app. KDs) were estimated by using 1/1 binding models (software: OriginPro 2016G, Origin 2021, and GraFit (v.5)) as described in refs. [20], [25], [26], [32]. However, due to the high self-assembly propensities of involved peptides, more complex models might also apply. Determined app. KDs are means (±SD) from three binding curves derived from three independent titration assays.

[2] = target: T2, N-terminal fluorescein-labeled IAPP (Homo sapiens, UniProt P10997); test: Fluorescence spectroscopic titration of Fluos-IAPP with ACMs; format: binding
T2 construct: made in house; host or cells: chemical synthesis (Fmoc-SPPS)
T2 sequence (P10997 34-70 limits assumed): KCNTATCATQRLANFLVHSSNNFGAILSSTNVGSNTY
Protocol: as §1

[3] = test system: RIN5fm cells; test: MTT reduction assay: effects of peptides on formation of cell-damaging IAPP assemblies (incl. IC50 titrations); format: cell-based, rat; settings: for IC50: 24 h; for effect on IAPP cytotoxicity (in words): MTT reduction in RIN5fm cells, solutions of the ThT assay
Protocol: Briefly, cells were cultivated and platted in 96-well plates as described in ref. [68]. Aliquots of solutions used for the ThT binding assays (see “ThT binding assays”) were diluted with cell medium at the indicated incubation time points (24 h or 7 days) and added to the cells at the indicated final concentrations. Following incubation with the cells for ~20 h (37 °C, humidified atmosphere, 5% CO2), cell damage was assessed by measuring cellular MTT reduction as described[32],[68]. IC50 values were determined as described[20],[21],[32].

[4] = test system: PC12 cells; test: MTT reduction assay: cytotoxicity of preformed (TAMRA-)Aβ42 oligomers with or without Nle3-VF; format: cell-based; settings: TAMRA-oAb42 (2 h); mean, n = 4
Protocol: Preformed (TAMRA-)oAβ42 and their mixtures with Nle3-VF were then incubated for an additional 2 h (37 °C, shaking 500 rpm; conditions as for the ThT binding assay). Incubation with the cells and the MTT reduction assay were performed as above. Statistical analysis (Supplementary Fig. 27d) was performed by one-way ANOVA and Bonferroni (software: OriginPro 2021).

[5] = app. KD (±SD) of ACM/Aβ42 interactions, titration of FITC-Aβ42 (5 nM; pH 7.4) with ACMs, means (±SD) from three binding curves
[6] = Table 2, mean values of the 3 curves, read-out: App. Kd
[7] = SF 6, Mean values of the 3 curves, read-out: App. Kd
[8] = titration of Fluos-IAPP (5 nM; pH 7.4, 10 mM sodium phosphate, 1% HFIP) with ACMs, 1/1 binding model, means (±SD) from three binding curves

Molecule | Kd [1, 5] | Kd ([1]; fluorescence titration, emission at 519 nm, Mean values of the 3 curves, read-out: App. Kd) | Kd ([2]; Fig. 2a right panel, mean values of the 3 curves, read-out: App. Kd) | Kd [1, 6] | Kd [2, 7] | Kd [2, 8] | IC50 [3] | effect on IAPP cytotoxicity (in words) [3] | Kd [2] | MTT reduction (% control) [4]
CCCC[C@H](NC(=O)[C@H](CC(C)C)NC(=O)CNC(=O)[C@@H](NC(=O)[C@@H](NC(=O)[C@H](C)NC(=O)CNC(=O)[C@H](CCCCN)NC(=O)[C@H](CC(N)=O)NC(=O)[C@H](CC(C)C)NC(=O)[C@H](CC(C)C)NC(=O)[C@H](CC(C)C)NC(=O)[C@H](CC(=O)O)NC(=O)[C@H](CCC(=O)O)NC(=O)[C@H](C)NC(=O)[C@H](Cc1ccccc1)NC(=O)[C@H](Cc1ccccc1)N(C)C(=O)[C@@H](NC(=O)[C@H](CC(C)C)N(C)C(=O)[C@H](CCCCN)NC(=O)[C@@H](N)CCC(N)=O)C(C)C)[C@@H](C)CC)[C@@H](C)CC)C(=O)N[C@H](C(=O)NCC(=O)NCC(=O)N[C@H](C(=O)N[C@H](C(=O)O)C(C)C)C(C)C)C(C)C [L3-LF] (H-QK[NMeL]V[NMeF]FAEDLLLNKGAIIGL[Nle]VGGVV-OH) |  |  |  | 2.64 nM | 143 nM |  | 133 nM | fully suppressed |  | 
CCCC[C@H](NC(=O)[C@H](CC(=O)O)NC(=O)[C@H](CCC(=O)O)NC(=O)[C@H](C)NC(=O)[C@H](Cc1ccccc1)NC(=O)[C@H](Cc1ccccc1)N(C)C(=O)[C@@H](NC(=O)[C@H](CC(C)C)N(C)C(=O)[C@H](CCCCN)NC(=O)[C@@H](N)CCC(N)=O)C(C)C)C(=O)N[C@@H](CCCC)C(=O)N[C@@H](CCCC)C(=O)N[C@@H](CC(N)=O)C(=O)N[C@@H](CCCCN)C(=O)NCC(=O)N[C@@H](C)C(=O)N[C@H](C(=O)N[C@H](C(=O)NCC(=O)N[C@@H](CC(C)C)C(=O)N[C@@H](CCCC)C(=O)N[C@H](C(=O)NCC(=O)NCC(=O)N[C@H](C(=O)N[C@H](C(=O)O)C(C)C)C(C)C)C(C)C)[C@@H](C)CC)[C@@H](C)CC [Nle3-LF] (H-QK[NMeL]V[NMeF]FAED[Nle][Nle][Nle]NKGAIIGL[Nle]VGGVV-OH) | 11.1 nM |  |  | 11.1 nM | 55.4 nM |  | 82.1 nM | fully suppressed | 55.4 nM | 
TAMRA-oAb42 |  |  |  |  |  |  |  |  |  | 66.7213 % control

Further lines, with some results ahead:

Kd [1, 5] | Kd ([1]; fluorescence titration, emission at 519 nm, Mean values of the 3 curves, read-out: App. Kd) | Kd ([2]; Fig. 2a right panel, mean values of the 3 curves, read-out: App. Kd) | Kd [1, 6] | Kd [2, 7] | Kd [2, 8] | Molecule | IC50 [3] | effect on IAPP cytotoxicity (in words) [3] | Kd [2] | MTT reduction (% control) [4]
14.5 nM | 14.5 nM | 69.5 nM |  |  |  | CCCC[C@H](NC(=O)[C@H](CC(=O)O)NC(=O)[C@H](CCC(=O)O)NC(=O)[C@H](C)NC(=O)[C@H](Cc1ccccc1)N(C)C(=O)[C@H](Cc1ccccc1)NC(=O)[C@H](C(C)C)N(C)C(=O)[C@H](CC(C)C)NC(=O)[C@H](CCCCN)NC(=O)[C@@H](N)CCC(N)=O)C(=O)N[C@@H](CCCC)C(=O)N[C@@H](CCCC)C(=O)N[C@@H](CC(N)=O)C(=O)N[C@@H](CCCCN)C(=O)NCC(=O)N[C@@H](C)C(=O)N[C@H](C(=O)N[C@H](C(=O)NCC(=O)N[C@@H](CC(C)C)C(=O)N[C@@H](CCCC)C(=O)N[C@H](C(=O)NCC(=O)NCC(=O)N[C@H](C(=O)N[C@H](C(=O)O)C(C)C)C(C)C)C(C)C)[C@@H](C)CC)[C@@H](C)CC [Nle3-VF] (H-QKL[NMeV]F[NMeF]AED[Nle][Nle][Nle]NKGAIIGL[Nle]VGGVV-OH) | 65 nM | fully suppressed |  | 
38 nM |  |  | 38 nM | 77.3 nM | 77.3 nM | CCCC[C@H](NC(=O)[C@H](CC(C)C)NC(=O)CNC(=O)[C@@H](NC(=O)[C@@H](NC(=O)[C@H](C)NC(=O)CNC(=O)[C@H](CCCCN)NC(=O)[C@H](CC(N)=O)NC(=O)[C@H](CC(C)C)NC(=O)[C@H](CC(C)C)NC(=O)[C@H](CC(C)C)NC(=O)[C@H](CC(=O)O)NC(=O)[C@H](CCC(=O)O)NC(=O)[C@H](C)NC(=O)[C@H](Cc1ccccc1)N(C)C(=O)[C@H](Cc1ccccc1)NC(=O)[C@H](C(C)C)N(C)C(=O)[C@H](CC(C)C)NC(=O)[C@H](CCCCN)NC(=O)[C@@H](N)CCC(N)=O)[C@@H](C)CC)[C@@H](C)CC)C(=O)N[C@H](C(=O)NCC(=O)NCC(=O)N[C@H](C(=O)N[C@H](C(=O)O)C(C)C)C(C)C)C(C)C [L3-VF] (H-QKL[NMeV]F[NMeF]AEDLLLNKGAIIGL[Nle]VGGVV-OH) | 112 nM |  |  | 
431 nM |  |  | 431 nM | 37.6 nM | 37.6 nM | CCCC[C@H](NC(=O)[C@H](CC(C)C)NC(=O)CNC(=O)[C@@H](NC(=O)[C@@H](NC(=O)[C@H](C)NC(=O)CNC(=O)[C@H](CCCCN)NC(=O)[C@H](CC(N)=O)NC(=O)[C@H](Cc1ccccc1)NC(=O)[C@H](Cc1ccccc1)NC(=O)[C@H](Cc1ccccc1)NC(=O)[C@H](CC(=O)O)NC(=O)[C@H](CCC(=O)O)NC(=O)[C@H](C)NC(=O)[C@H](Cc1ccccc1)NC(=O)[C@H](Cc1ccccc1)N(C)C(=O)[C@@H](NC(=O)[C@H](CC(C)C)N(C)C(=O)[C@H](CCCCN)NC(=O)[C@@H](N)CCC(N)=O)C(C)C)[C@@H](C)CC)[C@@H](C)CC)C(=O)N[C@H](C(=O)NCC(=O)NCC(=O)N[C@H](C(=O)N[C@H](C(=O)O)C(C)C)C(C)C)C(C)C [F3-LF] (H-QK[NMeL]V[NMeF]FAEDFFFNKGAIIGL[Nle]VGGVV-OH) | 41.7 nM |  |  | 
161 nM |  |  | 161 nM | 15 nM | 15 nM | CCCC[C@H](NC(=O)[C@H](CC(C)C)NC(=O)CNC(=O)[C@@H](NC(=O)[C@@H](NC(=O)[C@H](C)NC(=O)CNC(=O)[C@H](CCCCN)NC(=O)[C@H](CC(N)=O)NC(=O)[C@H](Cc1ccccc1)NC(=O)[C@H](Cc1ccccc1)NC(=O)[C@H](Cc1ccccc1)NC(=O)[C@H](CC(=O)O)NC(=O)[C@H](CCC(=O)O)NC(=O)[C@H](C)NC(=O)[C@H](Cc1ccccc1)N(C)C(=O)[C@H](Cc1ccccc1)NC(=O)[C@H](C(C)C)N(C)C(=O)[C@H](CC(C)C)NC(=O)[C@H](CCCCN)NC(=O)[C@@H](N)CCC(N)=O)[C@@H](C)CC)[C@@H](C)CC)C(=O)N[C@H](C(=O)NCC(=O)NCC(=O)N[C@H](C(=O)N[C@H](C(=O)O)C(C)C)C(C)C)C(C)C [F3-VF] (H-QKL[NMeV]F[NMeF]AEDFFFNKGAIIGL[Nle]VGGVV-OH) | 78.5 nM |  |  | 
